Reference: patent US20230212517A1, “METHODS FOR GENERATING HEMATOPOIETIC STEM CELLS” (The Brigham and Women's Hospital, Inc., priority 2018, published 2023)

Test system: E11.5 AGM-derived HSCs
Experiment: Serial transplantation of treated E11.5 AGM-derived HSCs into lethally irradiated mice
Format: in vivo, mouse
Conditions: for multi-lineage reconstitution (myeloid, T-cells, B-cells) in primary transplant / peripheral blood chimerism / engraftment in primary transplant: primary recipients; for multi-lineage reconstitution (myeloid, T-cells, B-cells) in primary transplant: week 16; for peripheral blood chimerism / engraftment in primary transplant: weeks 8-16, three embryo equivalent treated AGM donor cells
Method: Pulsating blood vessels like conditions were stimulated in vitro using FLEXCELL FX-4000 cell stretching bioreactor machine. To analyze roles of pharmacological targets in regulating the endothelial-to-HSC transition, mouse embryo-derived AGM or whole mouse embryo were exposed ex vivo with biomechanical stretching, chemicals, or drugs. Next, hematopoietic colony formation assays were performed by incubating mouse AGM-derived cells in StemCell M3434 media for seven days. Serial transplantation of AGM-derived HSCs in lethally irradiated SJL mice were performed. The stem cell frequency upon biomechanical stretching was analyzed using a limiting dilution assay. To characterize properties of AGM-HSC-derived blood cells in primary transplants, percentage chimerism and reconstitution was measured using FACS, globin transcripts were analyzed using quantitative reverse transcriptase-PCR, myeloperoxidase amount was measured using PICOKINE ELISA kit, TCR-β rearrangement was analyzed using PCR for TCR-β locus, pre-immune IG detection was analyzed using Thermo-Fisher Mouse Ig Isotyping kit, and delayed-type hypersensitivity was analyzed by injecting sheep RBC (Rockland Immunochemicals) in the footpad of pre-sensitized mice.
For primary transplantation, three-embryo equivalents of untreated or treated (cyclic strain or 25 μM Yoda1) AGMs plus splenic helper cells (˜500,000 per mouse) were injected into lethally irradiated (split dose […]) Cd45.1 (SJL) mice by retro-orbital injection. For secondary and tertiary transplants, the bone marrow was isolated (legs, arm, pelvic bone, spine, sternum) from the transplanted mice. The bone marrow was loaded on a FICOLL gradient (HISTOPAQUE-1083 solution, Sigma-Aldrich), and the cells from the buffy coat incubated with biotin-conjugated lineage antibodies and streptavidin microbeads (Miltenyi Biotec). Next, the lineage negative (Lin) cells were separated with MACS LS Columns (Miltenyi Biotec), and the donor Cd45.2 Lin^−Sca1^+-Kit^+ (LSK) cells sorted with a MoFlo Beckman Coulter sorter. Subsequently, the sorted Cd45.2 LSK cells were mixed with Cd45.1 splenic helper cells (˜500,000 per mouse) and transplanted into Cd45.1 irradiated (split dose […]) SJL mice by retro-orbital injection.
AGM cells from explants and ex vivo were stained with Sca1-Pacific-Blue (E13-161.7, Biolegend) and Flk1-APC-Cy7 (Avas 12α1, BD). Blood from transplanted mice was stained with the following antibody cocktail: Cd45.2-Pacific-Blue (104, Biolegend), Cd45.1-FITC (A20, Biolegend), Cd3-PE (145-2C11, Biolegend), Cd8-PE (53-6.7, Biolegend), Mac1-APC (M1/70, Biolegend), Gr1-APC (108412, Biolegend), Cd19-APC-CY7 (6D5, Biolegend), B220-APC-CY7 (RA3-6B2, Biolegend).
Cells from the bone marrow, spleen, thymus, and lymph node from mice transplanted with E11.5 AGM cells were stained with the following antibody panels: Bone marrow LT-HSC: Cd45.2-FITC (104, Biolegend), Ter119-Biotin (TER-119 BD), Gr1-Biotin (RB6-8C5, BD), Cd5-Biotin (53-7.3, BD), Cd8a-Biotin (53-6.7, BD), B220-Biotin (RA3-6B2, BD), Streptavidin-Pacific Blue (eBioscience), Sca1-PE-CY7 (D7, eBioscience), cKit-APC (2B8, eBioscience), Cd48-APC-CY7 (HM48-1, BD), Cd150-PE-CY5 (TC15-12F12.2, Biolegend). Erythroid development RI-RV in bone marrow: Cd45.2-Pacific-Blue (104, Biolegend), Cd45.1-FITC (A20, Biolegend), Ter119-APC (TER-119, Biolegend), Cd71-PE (R17217, eBioscience). Bone marrow granulocytes: Cd45.2-Pacific-Blue (104, Biolegend), Cd45.1-FITC (A20, Biolegend), Gr1-PE, (RB6-8C5, BD); Mac1-APC (M1/70, Biolegend). Spleen, thymus and lymph nodes T Cells: Cd45.2-Pacific-Blue (104, Biolegend), Cd45.1-FITC (A20, Biolegend), Cd8-PE (53-6.7, Biolegend), Cd4-APC (RM4-5, eBioscience). Spleen, thymus and lymph node myeloid and B cells: Cd45.2-Pacific-Blue (104, Biolegend), Cd45.1-FITC (A20, Biolegend), Cd19-APC-CY7 (6D5, Biolegend), Mac1-APC (M1/70, Biolegend). We performed all FACS analyses on a BD Fortessa cytometer. […]

Structure (SMILES): Clc1cccc(Cl)c1CSc1nnc(-c2cnccn2)s1 [Yoda1, 2-[5-[[(2,6-Dichlorophenyl)methyl]thio]-1,3,4-thiadiazol-2-yl]-pyrazine]
- multi-lineage reconstitution (myeloid, T-cells, B-cells) in primary transplant: stimulates the formation of HSCs that reconstitute to the blood
- multi-lineage reconstitution (myeloid, T-cells, B-cells) in primary transplant (listed as Piezo1 activator): normal multi-lineage reconstitution
- peripheral blood chimerism / engraftment in primary transplant: stimulates the formation of HSCs
- peripheral blood chimerism / engraftment in primary transplant (listed as Piezo1 activator): higher engraftment
- multi-lineage reconstitution in secondary transplant (secondary recipients, week 12): produces HSCs that can serially reconstitute to the blood
- peripheral blood chimerism in secondary transplant (secondary recipients, weeks 8-12, 2000 sorted Lin-Sca1+c-Kit+ HSPCs): produces HSCs that have serial engraftment and self-renewal capacities
- amount of Lin-Sca1+c-Kit+Cd48-Cd150+ HSCs in bone marrow of primary recipients (vs. control AGM): two- to three-times higher amount
